Data taken from patent US20220279826A1, “OFF-FLAVOR SUPPRESSING AGENT” (AJINOMOTO CO., INC., priority 2019, published 2022).

Assays:
[1] = Sensory evaluation in Japanese noodle soup base solution with potassium chloride (0.1 g) (Experimental Example 4); conditions: for off-taste suppressing effect: Japanese noodle soup base solution, potassium chloride 0.1 g; for intensity of off-tastes (bitter taste, metallic taste, harsh taste, astringent taste) derived from potassium chloride: base solution of Table 18
Method: Potassium chloride (0.1 g) was added to a commercially available Japanese noodle soup base (manufactured by Yamaki Co., Ltd.) (11.1 g), and dissolved by adding hot water ([…]) to prepare a base solution.
Each compound shown in the following Table 18 was added to the base solution prepared above so as to achieve the concentration (addition concentration) shown in the following Table 18 to prepare each evaluation sample.
Based on the following evaluation criteria, a panel of two experts determined by consensus the intensity of off-tastes (bitter taste, metallic taste, harsh taste, astringent taste) derived from potassium chloride in each evaluation sample, by reference to each potassium chloride aqueous solution adjusted to 0.1 wt % or 0.05 wt %.

[2] = Sensory evaluation in chicken broth solution with potassium chloride (Experimental Example 3); conditions: chicken broth solution with 0.8 wt % potassium chloride
Method: As shown in the following (1) to (3) below, 0.8 wt % of potassium chloride was added to a food base powder corresponding to 0.5 wt % of sodium chloride to prepare each base solution having an off-taste derived from potassium chloride.
Potassium chloride (0.8 g) was added to a commercially available powdered chicken broth mix (manufactured by Ajinomoto Co., Inc., trade name “Marutorigara Soup”) (1.0 g), hot water (98.2 g) was added to dissolve the mixture to prepare a base solution (chicken broth soup solution).
Each compound shown in the following Tables 15 to 17 was added to each base solution (ramen noodle soup solution, chicken broth solution, potage solution) so as to achieve the concentration (addition concentration) shown in the following Tables 15 to 17 to prepare each evaluation sample.
By a method similar to that in Experimental Example 1, a panel of two experts determined the intensity of off-tastes (bitter taste, metallic taste, harsh taste, astringent taste) derived from potassium chloride in each evaluation sample.

[3] = Sensory evaluation in BCAA sweetness aqueous solution (Experimental Example 6); design: key to off-taste suppressing effect: ±: no change from negative control; −: slightly suppressed compared to negative control; −−: suppressed compared to negative control (same level of intensity as BCAA sweetness aqueous solution in which total concentration of leucine, isoleucine, and valine (weight ratio=2:1:1) exceeds 0.8 wt % and is not more than 0.9 wt %); −−−: considerably suppressed compared to negative control (same level of intensity as BCAA sweetness aqueous solution in which total concentration of leucine, isoleucine, and valine (weight ratio=2:1:1) is not more than 0.8 wt %); conditions: for intensity of off-tastes (bitter taste, harsh taste) derived from amino acid (branched chain amino acid): summary of Table 20
Method: Each compound shown in the following Table 20 was added to an aqueous solution prepared by dissolving leucine (0.50 parts by weight), isoleucine (0.25 parts by weight), valine (0.25 parts by weight), and granulated sugar (4 parts by weight) in ion exchange water (95 parts by weight) (hereinafter at times referred to as BCAA sweetness aqueous solution) so as to achieve the concentration (addition concentration) shown in the following Table 20 to prepare each evaluation sample.
Based on the following evaluation criteria, a panel of four experts determined by consensus the intensity of off-tastes (bitter taste, harsh taste) derived from amino acid in each evaluation sample, by comparison with a BCAA sweetness aqueous solution without addition of any compound (negative control).

[4] = addition concentration 1000 weight ppb (1000 weight ppm with respect to potassium chloride)
[5] = addition concentration 2000 weight ppb (2000 weight ppm with respect to potassium chloride)
[6] = addition concentration 10 weight ppb (1 weight ppm with respect to amino acid)
[7] = addition concentration 50 weight ppb (5 weight ppm with respect to amino acid)
[8] = addition concentration 100 weight ppb (10 weight ppm with respect to amino acid)
[9] = addition concentration 10 ppb (1.25 weight ppm with respect to potassium chloride)
[10] = addition concentration 1 weight ppb (0.1 weight ppm with respect to amino acid)

SMILES | off-taste suppressing effect [1, 4] | off-taste suppressing effect [1, 5] | intensity of off-tastes (bitter taste, metallic taste, harsh taste, astringent taste) derived from potassium chloride [1] | off-taste suppressing effect ([2]; addition concentration 100 ppb (12.5 weight ppm with respect to potassium chloride)) | off-taste suppressing effect [3, 6] | off-taste suppressing effect [3, 7] | off-taste suppressing effect [3, 8] | off-taste suppressing effect ([3]; addition concentration 200 weight ppb (20 weight ppm with respect to amino acid)) | intensity of off-tastes (bitter taste, harsh taste) derived from amino acid (branched chain amino acid) [3] | off-taste suppressing effect [2, 9] | off-taste suppressing effect [3, 10] | off-taste suppressing effect ([2]; addition concentration 1 ppm (125 weight ppm with respect to potassium chloride)) | off-taste suppressing effect ([3]; addition concentration 500 weight ppb (50 weight ppm with respect to amino acid)) | off-taste suppressing effect ([3]; addition concentration 1000 weight ppb (100 weight ppm with respect to amino acid)) | off-taste suppressing effect ([3]; addition concentration 2000 weight ppb (200 weight ppm with respect to amino acid))
CC(=O)c1ccc(C)o1 [2-acetyl-5-methylfuran] | + (intensity of the same level as potassium chloride aqueous solution with potassium chloride concentration of not less than 0.05 wt % and less than 0.1 wt %) | ++ (intensity of the same level as potassium chloride aqueous solution with potassium chloride concentration of less than 0.05 wt %) | decreased |  |  |  |  |  |  |  |  |  |  |  | 
CC(=O)c1ccco1 [2-acetylfuran] |  |  |  | ++ (intensity of the same level as potassium chloride aqueous solution with potassium chloride concentration of not less than 0.7 wt % and less than 0.75 wt %) | − | −− (suppressed compared to negative control (same level of intensity as BCAA sweetness aqueous solution in which total concentration of leucine, isoleucine, and valine (weight ratio=2:1:1) exceeds 0.8 wt % and is not more than 0.9 wt %)) | −− (suppressed compared to negative control (same level of intensity as BCAA sweetness aqueous solution in which total concentration of leucine, isoleucine, and valine (weight ratio=2:1:1) exceeds 0.8 wt % and is not more than 0.9 wt %)) | −− (suppressed compared to negative control (same level of intensity as BCAA sweetness aqueous solution in which total concentration of leucine, isoleucine, and valine (weight ratio=2:1:1) exceeds 0.8 wt % and is not more than 0.9 wt %)) | suppressed |  |  |  |  |  | 
CC1=C(O)C(=O)CC1 [cyclotene] |  |  |  |  | −− (suppressed compared to negative control (same level of intensity as BCAA sweetness aqueous solution in which total concentration of leucine, isoleucine, and valine (weight ratio=2:1:1) exceeds 0.8 wt % and is not more than 0.9 wt %)) | −− (suppressed compared to negative control (same level of intensity as BCAA sweetness aqueous solution in which total concentration of leucine, isoleucine, and valine (weight ratio=2:1:1) exceeds 0.8 wt % and is not more than 0.9 wt %)) | −− (suppressed compared to negative control (same level of intensity as BCAA sweetness aqueous solution in which total concentration of leucine, isoleucine, and valine (weight ratio=2:1:1) exceeds 0.8 wt % and is not more than 0.9 wt %)) |  | suppressed | +++ (intensity of the same level as potassium chloride aqueous solution with potassium chloride concentration of not less than 0.65 wt % and less than 0.7 wt %) | −− (suppressed compared to negative control (same level of intensity as BCAA sweetness aqueous solution in which total concentration of leucine, isoleucine, and valine (weight ratio=2:1:1) exceeds 0.8 wt % and is not more than 0.9 wt %)) |  |  |  | 
O=Cc1ccco1 [furfural, Furfural] |  |  |  |  | −− (suppressed compared to negative control (same level of intensity as BCAA sweetness aqueous solution in which total concentration of leucine, isoleucine, and valine (weight ratio=2:1:1) exceeds 0.8 wt % and is not more than 0.9 wt %)) | −− (suppressed compared to negative control (same level of intensity as BCAA sweetness aqueous solution in which total concentration of leucine, isoleucine, and valine (weight ratio=2:1:1) exceeds 0.8 wt % and is not more than 0.9 wt %)) | −− (suppressed compared to negative control (same level of intensity as BCAA sweetness aqueous solution in which total concentration of leucine, isoleucine, and valine (weight ratio=2:1:1) exceeds 0.8 wt % and is not more than 0.9 wt %)) |  | suppressed | +++ (intensity of the same level as potassium chloride aqueous solution with potassium chloride concentration of not less than 0.65 wt % and less than 0.7 wt %) | − |  |  |  | 
CCC(=O)O [propionic acid] | + (intensity of the same level as potassium chloride aqueous solution with potassium chloride concentration of not less than 0.05 wt % and less than 0.1 wt %) | ++ (intensity of the same level as potassium chloride aqueous solution with potassium chloride concentration of less than 0.05 wt %) | decreased |  |  |  | − |  | suppressed |  |  | +++ (intensity of the same level as potassium chloride aqueous solution with potassium chloride concentration of not less than 0.65 wt % and less than 0.7 wt %) | −− (suppressed compared to negative control (same level of intensity as BCAA sweetness aqueous solution in which total concentration of leucine, isoleucine, and valine (weight ratio=2:1:1) exceeds 0.8 wt % and is not more than 0.9 wt %)) | −− (suppressed compared to negative control (same level of intensity as BCAA sweetness aqueous solution in which total concentration of leucine, isoleucine, and valine (weight ratio=2:1:1) exceeds 0.8 wt % and is not more than 0.9 wt %)) | −− (suppressed compared to negative control (same level of intensity as BCAA sweetness aqueous solution in which total concentration of leucine, isoleucine, and valine (weight ratio=2:1:1) exceeds 0.8 wt % and is not more than 0.9 wt %))
